This passage reports GI50 and TGI results from PubChem BioAssay (NCI).

The structures appear in SMILES notation. Values joined by “and” are separate entries in the source; they are usually repeats but may differ in a detail not shown here. Equal values may be shown once.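 Growth conditions: 96-well plates. Treatment: test compound, 48 hours, 5 concentrations. Analysis: linear interpolation between bracketing concentrations; unreached endpoints set to highest concentration. Abbreviation: GI50, concentration required for 50% inhibition of growth. TGI: total growth inhibition.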 Where only a bound is given, the exact number is not on record here.

Test systems include A549 NSCLC; MDA-MB-435; HOP-62 NSCLC; PC-3 prostate; NCI-H23 lung; SK-MEL-28 melanoma; OVCAR-8 ovarian; K-562 leukemia; MCF7 breast; UACC-62 melanoma.
Assay in all cases: NCI tumour cell line growth inhibition, 48 h

As to `N#Cc1c(NN)n(C2OC(CO)C(O)C2O)c2ncnc(N)c12` (centres undefined), the GI50 is 0.0353 µM in the assay with A549 NSCLC; 0.104 µM with MDA-MB-435; 0.247 µM in the assay on HOP-62 NSCLC; 0.0778 µM in the assay with PC-3 prostate; 0.218 µM with NCI-H23 lung; 0.0312 µM with SK-MEL-28 melanoma. For the same molecule, the GI50 was 0.257 µM with OVCAR-8 ovarian, 0.0181 µM in the assay with K-562 leukemia, 0.0315 µM in the assay with MCF7 breast and 0.126 µM in the assay on UACC-62 melanoma. Also, the TGI in the assay with A549 NSCLC is over 100 µM; in the assay with MDA-MB-435 it was 0.916 µM; in the assay on HOP-62 NSCLC it was 2.02 µM; with NCI-H23 lung, 2.47 µM; with SK-MEL-28 melanoma, 0.216 µM; in the assay with OVCAR-8 ovarian, 7.56 µM. In addition, the TGI turned out to be 0.176 µM with K-562 leukemia, 2.87 µM in the assay with MCF7 breast and 0.308 µM with UACC-62 melanoma.
As for `NC(=O)NC1C(c2ccccc2)=C1c1ccccc1`, the TGI in the assay on A549 NSCLC is 74.6 µM; in the assay on MDA-MB-435, 40.3 µM; in the assay on HOP-62 NSCLC it was over 100 µM; in the assay on PC-3 prostate it was 39.4 µM; with NCI-H23 lung it was 61.4 µM; in the assay on SK-MEL-28 melanoma, 33.3 µM. Moreover, the TGI was 25.5 µM with OVCAR-8 ovarian, 43.1 µM with K-562 leukemia, 33.6 µM in the assay on MCF7 breast and 23.4 µM with UACC-62 melanoma.
For `O=C(O)C1C2C=CC(O2)C1C(=O)NCc1ccccn1` (centres undefined), the TGI with A549 NSCLC, in the assay on MDA-MB-435, in the assay on HOP-62 NSCLC, in the assay on PC-3 prostate, in the assay on NCI-H23 lung and in the assay with SK-MEL-28 melanoma was over 100 µM in each case. For the same molecule, the TGI in the assay on OVCAR-8 ovarian, in the assay on K-562 leukemia, in the assay on MCF7 breast and with UACC-62 melanoma was over 100 µM each time.
For the molecule `CNC(=O)N(C)N=NCCCl`, the TGI with A549 NSCLC, in the assay with MDA-MB-435, in the assay on HOP-62 NSCLC, in the assay with PC-3 prostate, in the assay with NCI-H23 lung and in the assay with SK-MEL-28 melanoma was over 100 µM in each case. In addition, the TGI in the assay on OVCAR-8 ovarian, in the assay on K-562 leukemia, with MCF7 breast and with UACC-62 melanoma was over 100 µM in each case.
For `COc1ccc(C(C)=O)cc1N1C(=O)C2C(C1=O)C1(c3ccccc3)C(=O)C2(c2ccccc2)C(c2ccc(C)cc2)=C1c1ccc(C)cc1` (centres undefined), the GI50 in the assay on A549 NSCLC, with MDA-MB-435, in the assay with HOP-62 NSCLC, with PC-3 prostate, in the assay on NCI-H23 lung and in the assay with SK-MEL-28 melanoma was over 100 µM throughout. Also, the GI50 with OVCAR-8 ovarian, with K-562 leukemia, with MCF7 breast and with UACC-62 melanoma was over 100 µM in each case. Further, the TGI in the assay with A549 NSCLC, in the assay with MDA-MB-435, with HOP-62 NSCLC, in the assay with PC-3 prostate, in the assay on NCI-H23 lung and with SK-MEL-28 melanoma was over 100 µM throughout. The TGI in the assay on OVCAR-8 ovarian, with K-562 leukemia, in the assay with MCF7 breast and with UACC-62 melanoma was over 100 µM throughout.
On to `CCN(CC)CCCC(CNc1ccnc2cc(Cl)ccc12)c1ccc(Cl)cc1` (centres undefined), for which the GI50 in the assay with A549 NSCLC was 2.06 µM and 1.63 µM; with MDA-MB-435, 1.19 µM and 0.204 µM; with HOP-62 NSCLC, 1.83 µM and 1.64 µM; in the assay with PC-3 prostate it was 3.51 µM and 2.45 µM; in the assay with NCI-H23 lung, 1.87 µM and 2.01 µM; in the assay on SK-MEL-28 melanoma, 1.66 µM and 0.537 µM. The GI50 in the assay on OVCAR-8 ovarian was 2.61 µM and 1.57 µM; with K-562 leukemia, 0.289 µM and 0.227 µM; in the assay on MCF7 breast it was 1.31 µM and 1.24 µM; in the assay on UACC-62 melanoma, 1.9 µM and 1.86 µM. Further, the TGI with A549 NSCLC is 4.2 µM and 3.42 µM; with MDA-MB-435, 2.55 µM and 0.462 µM; in the assay on HOP-62 NSCLC, 4.23 µM and 3.73 µM; with PC-3 prostate, 13.2 µM and 10.2 µM; in the assay on NCI-H23 lung it was 4.42 µM and 5.93 µM; with SK-MEL-28 melanoma, 3.3 µM and 1.09 µM. In addition, the TGI with OVCAR-8 ovarian is 7.61 µM and 3.99 µM; in the assay with K-562 leukemia, 0.994 µM and 0.603 µM; in the assay with MCF7 breast, 3.15 µM and 2.71 µM; in the assay with UACC-62 melanoma it was 3.52 µM and 3.5 µM.
With `O=c1c2sc(=S)n(-c3ccc(F)cc3)c2ncn1Cc1ccc(F)cc1F`, the GI50 with A549 NSCLC is 92.1 µM; in the assay with MDA-MB-435, over 100 µM; with HOP-62 NSCLC, over 100 µM; with PC-3 prostate it was 80.8 µM; in the assay on NCI-H23 lung it was over 100 µM; with SK-MEL-28 melanoma, over 100 µM. Moreover, the GI50 is over 100 µM in the assay on OVCAR-8 ovarian, over 100 µM in the assay with K-562 leukemia, 67.7 µM with MCF7 breast and over 100 µM in the assay with UACC-62 melanoma. The TGI with A549 NSCLC, with MDA-MB-435, in the assay with HOP-62 NSCLC, in the assay on PC-3 prostate, in the assay on NCI-H23 lung and in the assay with SK-MEL-28 melanoma was over 100 µM each time. Further, the TGI with OVCAR-8 ovarian, in the assay on K-562 leukemia, in the assay on MCF7 breast and in the assay on UACC-62 melanoma was over 100 µM throughout.
For `COc1cc(C#CC(=O)OC/C=C/c2ccc3c(c2)OCO3)cc(OC)c1OC`, the TGI in the assay with A549 NSCLC is over 100 µM; with MDA-MB-435, 38.1 µM; in the assay with HOP-62 NSCLC, 86 µM; with PC-3 prostate, 72.3 µM; in the assay on NCI-H23 lung it was 58.5 µM; in the assay on SK-MEL-28 melanoma, over 100 µM. The TGI in the assay on OVCAR-8 ovarian is over 100 µM; in the assay on K-562 leukemia, 58.1 µM; in the assay with MCF7 breast, 64.8 µM; in the assay with UACC-62 melanoma it was 37.2 µM.
